Legend:
[1] = molecular target: T1, Proteasome Macropain subunit MB1 (Homo sapiens, UniProt P28074); assay: Inhibition of human 20S constitutive proteosome beta5c subunit using Suc-LLVY-AMC as substrate measured after 10 mins by fluorescence based analysis
T1 sequence (P28074 whole entry): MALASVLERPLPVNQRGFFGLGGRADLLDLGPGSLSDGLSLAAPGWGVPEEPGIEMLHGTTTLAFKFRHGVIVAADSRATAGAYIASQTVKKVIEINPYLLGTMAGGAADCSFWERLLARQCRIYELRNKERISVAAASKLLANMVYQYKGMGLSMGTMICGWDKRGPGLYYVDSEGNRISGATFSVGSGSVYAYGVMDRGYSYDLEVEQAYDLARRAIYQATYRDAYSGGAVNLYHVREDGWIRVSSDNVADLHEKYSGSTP

[2] = molecular target: T1, Proteasome Macropain subunit MB1; assay: Competitive inhibition of human 20S constitutive proteosome beta5c subunit using Suc-LLVY-AMC as substrate measured after 10 mins by fluorescence based analysis

Structure (SMILES) | IC50 [1] [µM] | Ki [2] [µM]
COc1ccccc1NC(=O)Nc1ccc2n(c1=O)C[C@@H]1C[C@H]2CN(C(=O)c2ccccn2)C1 | 560 | –
N#Cc1cccc(NC(=O)Nc2ccc3n(c2=O)C[C@@H]2C[C@H]3CN(C(=O)c3ccccc3)C2)c1 | 201 | –
COc1ccccc1NC(=O)Nc1ccc2n(c1=O)C[C@@H]1C[C@H]2CN(C(=O)c2ccc3ccccc3c2)C1 | 6.65 | 4.6
N#Cc1cccc(NC(=O)Nc2ccc3n(c2=O)C[C@@H]2C[C@H]3CN(C(=O)c3ccc4ccccc4c3)C2)c1 | 10.3 | 3.42
CC(=O)N1C[C@H]2C[C@@H](C1)c1ccc(NC(=O)Nc3cccc(C#N)c3)c(=O)n1C2 | 491 | –
O=C(Nc1ccccc1)Nc1ccc2n(c1=O)C[C@@H]1C[C@H]2CN(C(=O)c2ccc3ccccc3c2)C1 | 11.1 | 9.69
O=C(Nc1ccc(Cl)cc1)Nc1ccc2n(c1=O)C[C@@H]1C[C@H]2CN(C(=O)c2ccc3ccccc3c2)C1 | 3.43 | 1.14
O=C(Nc1ccccc1)Nc1ccc2n(c1=O)C[C@@H]1C[C@H]2CN(C(=O)c2ccccn2)C1 | > 500 | –
N#Cc1cccc(NC(=O)Nc2ccc3n(c2=O)C[C@@H]2C[C@H]3CN(C(=O)c3cccnc3)C2)c1 | 440 | –
